Measurements taken from paper PMC9268552, “Synthesis of Pyrimidine Conjugates with 4-(6-Amino-hexanoyl)-7,8-difluoro-3,4-dihydro-3-methyl-2H-[1,4]benzoxazine and Evaluation of Their Antiviral Activity” (Molecules, 2022).
Where “and” joins values, the source holds several entries; their conditions need not be identical. Identical values can stand only once. Like-named read-outs stand apart in the source and are kept apart here.

Key:
HSV-1/L2/R [1] = test: microbe, parasite or virus in culture; settings: for SI (CC50/IC50): HSV-1/L2/R (acyclovir-resistant), Vero E6 cells; for IC50: Human alphaherpesvirus 1, Vero C1008, read-out: IC50 (50% inhibition of virus-induced CPE)
Text: (§1) The anti-herpesvirus activity of the synthesized compounds 5a–e was studied against the reference strain HSV-1/L2 and the acyclovir-resistant strain HSV-1/L2/R in the Vero E6 cells (Table 1) by suppressing the virus-induced cytopathogenic effect (CPE) as described previously. Acyclovir, Foscarnet (sodium phosphonoformate hexahydrate), a drug of choice in clinical practice in case of inefficiency of acyclovir and related compounds, including cases of drug resistance, and Ribavirin, were used as reference drugs. To assess the cytotoxicity of the studied compounds, the percentage of viable and non-viable cells was determined using Trypan blue exclusion assay.

[2] = test system: influenza virus A/Puerto Rico/8/34 (H1N1); settings: influenza A/Puerto Rico/8/34 (H1N1); MDCK cells
[3] = Cytotoxicity in Vero E6 cells (Trypan blue exclusion assay); settings: African green monkey
Text: as §1

[4] = test system: influenza virus A/Puerto Rico/8/34 (H1N1); test: organism not typed; settings: MDCK, read-out: IC50 (50% inhibition of virus-induced CPE)
in vitro = settings: dog
HSV-1/L2 [5] = test: Suppression of virus-induced cytopathogenic effect (CPE), reference strain HSV-1/L2 in Vero E6 cells; settings: for IC50: Human alphaherpesvirus 1, Vero C1008, read-out: IC50 (50% inhibition of virus-induced CPE)
Text: as §1

HSV-1/L2/R [6] = settings: HSV-1/L2/R (acyclovir-resistant); Vero E6 cells; data for comparison; ref [27]; cited from earlier work
[7] = test system: influenza virus A/Puerto Rico/8/34 (H1N1); settings: influenza A/Puerto Rico/8/34 (H1N1), MDCK cells, data for comparison, ref [31], cited from earlier work
HSV-1/L2 [8] = settings: cited from earlier work
Vero E6 cells = settings: read-out: CC50 ± SD, data for comparison, ref [27]; cited from earlier work
MDCK cells = settings: read-out: CC50 ± SD, data for comparison, ref [31]; cited from earlier work

Row | SMILES | SI (CC50/IC50) (HSV-1/L2/R [1]) | IC50 (HSV-1/L2/R [1]) | SI (CC50/IC50) [2] | CC50 [3] | IC50 [4] | CC50 (in vitro) | SI (CC50/IC50) (HSV-1/L2 [5]; HSV-1/L2, Vero E6 cells) | IC50 (HSV-1/L2 [5]) | melting point | further results
1 | C[C@@H]1COc2c(ccc(F)c2F)N1C(=O)CCCCCNc1ncnc2[nH]ccc12.C[C@@H]1COc2c(ccc(F)c2F)N1C(=O)CCCCCNc1ncnc2[nH]ccc12.O (racemic) [(RS)-5e, (RS)-7,8-Difluoro-3,4-dihydro-3-methyl-4-[6-(7H-pyrrolo[2,3-d]pyrimidin-4-yl)aminohexanoyl]-2H-[1,4]benzoxazine Hemihydrate] | <1 | 18.6 µM | 1 | 17.6 ± 0.85 µM | > 80 µM | 86 ± 4 µM | <1 | 18.6 µM |  | 
2 | CCC(CC)O[C@@H]1C=C(C(=O)O)C[C@H](N)[C@H]1NC(C)=O [Oseltamivir carboxylate, reference compound] |  |  | >667 |  | 0.3 µM | > 200 µM |  |  |  | 
3 | O=C(O)P(=O)(O)O [Foscarnet, sodium phosphonoformate hexahydrate, reference compound] | >4 | 104 µM |  | > 417 µM |  |  |  | 104 µM |  | SI (CC50/IC50) (HSV-1/L2 [5]): >4
4 | C[C@H]1COc2c(ccc(F)c2F)N1C(=O)CCCCCNc1ccnc(N)n1.O [(S)-5a, (S)-4-[6-(2-Aminopyrimidin-4-yl)aminohexanoyl]-7,8-difluoro-3,4-dihydro-3-methyl-2H-[1,4]benzoxazine Hydrate] | <4 | 9.27 µM | >3 | 34.6 ± 0.88 µM | 7 ± 1 µM | 23 ± 1.2 µM | 3.7 | 9.27 µM |  | 
5 | C[C@H]1COc2c(ccc(F)c2F)N1C(=O)CCCCCNc1ccnc(N)n1.O (hydrate or solvate) [(S)-5a, (S)-4-[6-(2-Aminopyrimidin-4-yl)aminohexanoyl]-7,8-difluoro-3,4-dihydro-3-methyl-2H-[1,4]benzoxazine Hydrate] |  |  |  |  |  |  |  |  | 78 to 80 °C | 
6 | CC1COc2c(ccc(F)c2F)N1C(=O)CCCCCNc1cc(Cl)ncn1 (racemic) [(RS)-5c, (RS)-4-[6-(6-Chloropyrimidin-4-yl)aminohexanoyl]-7,8-difluoro-3,4-dihydro-3-methyl-2H-[1,4]benzoxazine] | 2 | 152 µM | 1 | > 304 µM | > 8 µM | 9 ± 1 µM | >2.0 | 148 µM | 101 to 103 °C | 
7 | NC(=O)c1ncn([C@@H]2O[C@H](CO)[C@@H](O)[C@H]2O)n1 [Ribavirin, reference compound] | >4 | 1020 µM |  | > 4100 µM |  |  |  | 1020 µM |  | SI (CC50/IC50) (HSV-1/L2 [5]): >4
8 | C[C@H]1COc2c(ccc(F)c2F)N1C(=O)CCCCCNc1ncnc2[nH]cnc12 [(S)-1] |  |  |  |  |  |  |  |  |  | SI (CC50/IC50) (HSV-1/L2/R [6]): 64 ^1; SI (CC50/IC50) [7]: >2 ^1; IC50 ([7]; read-out: IC50 (50% inhibition of virus-induced CPE)): > 10 µM; SI (CC50/IC50) (HSV-1/L2 [8]; Vero E6 cells, data for comparison, ref [27]): 64; IC50 (HSV-1/L2 [8]; read-out: IC50 (50% inhibition of virus-induced CPE), Vero E6 cells, data for comparison, ref [27]): 4.6 µM; CC50 (Vero E6 cells): 293 ± 15.5 µM; CC50 (MDCK cells): 24 ± 1 µM
9 | CC1COc2c(ccc(F)c2F)N1C(=O)CCCCCNc1cc(Cl)nc(N)n1 (racemic) [(RS)-5b, (RS)-4-[6-(2-Amino-6-chloropyrimidin-4-yl)aminohexanoyl]-7,8-difluoro-3,4-dihydro-3-methyl-2H-[1,4]benzoxazine] | <4 | 73.4 µM | <8 | 275 ± 4.3 µM | 92 ± 11 µM | 705 ± 42 µM | 3.7 | 73.4 µM | 92 to 94 °C | 
10 | C[C@@H]1COc2c(ccc(F)c2F)N1C(=O)CCCCCNc1ccnc(N)n1.C[C@@H]1COc2c(ccc(F)c2F)N1C(=O)CCCCCNc1ccnc(N)n1.O.O.O (racemic) [(RS)-5a, (RS)-4-[6-(2-Aminopyrimidin-4-yl)aminohexanoyl]-7,8-difluoro-3,4-dihydro-3-methyl-2H-[1,4]benzoxazine Sesquihydrate] | 8 | 18.6 µM | >1 | 151 ± 8.36 µM | 8 ± 1 µM | 11 ± 1 µM | 8 and 8.1 | 18.6 µM |  | 
11 | CC1COc2c(ccc(F)c2F)N1C(=O)CCCCCNc1ncccn1 (racemic) [(RS)-5d, (RS)-7,8-Difluoro-3,4-dihydro-3-methyl-4-[6-(pyrimidin-2-yl)aminohexanoyl]-2H-[1,4]benzoxazine] | <2 | 297 µM |  | 505 ± 17.7 µM | > 88 µM | 257 ± 12 µM | 1.7 | 297 µM | 106 to 108 °C | 
12 | Nc1nc2c(ncn2COCCO)c(=O)[nH]1 [Acyclovir, reference compound] | 1 | > 444 µM |  | > 444 µM |  |  |  | 1.73 µM |  | SI (CC50/IC50) (HSV-1/L2 [5]): >256
13 | C[C@H]1COc2c(ccc(F)c2F)N1C(=O)CCCCCNc1ncnc2[nH]ccc12 [(S)-5e, (3S)-7,8-Difluoro-3,4-dihydro-3-methyl-4-[6-(7H-pyrrolo[2,3-d]pyrimidin-4-yl)aminohexanoyl]-2H-[1,4]benzoxazine] | 6 | 75.2 µM | <2 | 469 ± 10.8 µM | > 26 µM | 47 ± 3 µM | 6 and 6.3 | 74.2 µM | 87 to 89 °C | 
14 | C[C@@H]1COc2c(ccc(F)c2F)N1C(=O)CCCCCNc1ncnc2[nH]ccc12.C[C@@H]1COc2c(ccc(F)c2F)N1C(=O)CCCCCNc1ncnc2[nH]ccc12.O (racemic) (hydrate or solvate) [(RS)-5e, (RS)-7,8-Difluoro-3,4-dihydro-3-methyl-4-[6-(7H-pyrrolo[2,3-d]pyrimidin-4-yl)aminohexanoyl]-2H-[1,4]benzoxazine Hemihydrate] |  |  |  |  |  |  |  |  | 86 to 88 °C | 
15 | C[C@@H]1COc2c(ccc(F)c2F)N1C(=O)CCCCCNc1ccnc(N)n1.C[C@@H]1COc2c(ccc(F)c2F)N1C(=O)CCCCCNc1ccnc(N)n1.O.O.O (racemic) (hydrate or solvate) [(RS)-5a, (RS)-4-[6-(2-Aminopyrimidin-4-yl)aminohexanoyl]-7,8-difluoro-3,4-dihydro-3-methyl-2H-[1,4]benzoxazine Sesquihydrate] |  |  |  |  |  |  |  |  | 59 to 60 °C | 
